According to US9149038B2, “4-amino-6-(heterocyclic)picolinates and 6-amino-2-(heterocyclic)pyrimidine-4-carboxylates and their use as herbicides” (Dow AgroSciences LLC, priority 2013, dated 2015):
Like-named read-outs stand apart in the source and are kept apart here.

Assays:
[1] = test system: Key Broadleaf Weed and Crop Species; test: Post-Emergent Test II: postemergent herbicidal activity, visual rating after 14 d (Table 7); format: in vivo; settings: post-emergence, 336 h; for pest or weed control at 140 g/ha: 140 g ai/ha; for pest or weed control at 35 g/ha: 35 g ai/ha; for pest or weed control at 70 g/ha: 70 g ai/ha
Excerpt: (§1) Herbicidal evaluations were made visually on a scale of 0 to 100 where 0 represents no activity and 100 represents complete plant death.
(§2) Seeds or nutlets of the desired test plant species were planted in Sun Gro Metro-Mix® 360 planting mixture, which typically has a pH of 6.0 to 6.8 and an organic matter content of about 30 percent, in plastic pots with a surface area of 64 square centimeters (cm^2). When required to ensure good germination and healthy plants, a fungicide treatment and/or other chemical or physical treatment was applied. The plants were grown for 7-21 d in a greenhouse with an approximate 15 h photoperiod which was maintained at about 23-29° C. during the day and 22-28° C. during the night. Nutrients and water were added on a regular basis and supplemental lighting was provided with overhead metal halide 1000-Watt lamps as necessary. The plants were employed for testing when they reached the first or second true leaf stage.
(§3) A weighed amount, determined by the highest rate to be tested, of each test compound was placed in a 25 mL glass vial and was dissolved in 4 mL of a 97:3 v/v mixture of acetone and DMSO to obtain concentrated stock solutions. […] The concentrated stock solutions obtained were diluted with 20 mL of an aqueous mixture containing acetone, water, isopropyl alcohol, DMSO, Atplus 411F crop oil concentrate, and Triton® X-155 surfactant in a 48.5:39:10:1.5:1.0:0.02 v/v ratio to obtain spray solutions containing the highest application rates. Additional application rates were obtained by serial dilution of 12 mL of the high rate solution into a solution containing 2 mL of a 97:3 v/v mixture of acetone and DMSO and 10 mL of an aqueous mixture containing acetone, water, isopropyl alcohol, DMSO, Atplus 411F crop oil concentrate, and Triton X-155 surfactant in a 48.5:39:10:1.5:1.0:0.02 v/v ratio to obtain ½×, ¼×, ⅛× and 1/16× rates of the high rate. Compound requirements are based upon a 12 mL application volume at a rate of 187 liters per hectare (L/ha). Formulated compounds were applied to the plant material with an overhead Mandel track sprayer equipped with 8002E nozzles calibrated to deliver 187 L/ha over an application area of 0.503 square meters at a spray height of 18 inches (43 cm) above the average plant canopy height. Control plants were sprayed in the same manner with the solvent blank.
(§4) The treated plants and control plants were placed in a greenhouse as described above and watered by subirrigation to prevent wash-off of the test compounds. After 14 d, the condition of the test plants as compared with that of the untreated plants was determined visually and scored on a scale of 0 to 100 percent where 0 corresponds to no injury and 100 corresponds to complete kill and are presented as indicated in Table 4.

[2] = test system: Key Grass and Sedge Weeds as well as Grass Crops; test: Post-Emergent Test II: postemergent herbicidal activity, visual rating after 14 d (Table 8); format: in vivo; settings: post-emergence, 336 h; for pest or weed control at 140 g/ha: 140 g ai/ha; for pest or weed control at 35 g/ha: 35 g ai/ha; for pest or weed control at 70 g/ha: 70 g ai/ha
Excerpt: as §1, §2, §3, §4

[3] = lambsquarters (Chenopodium album), read-out: Visual Growth Reduction (%) 14 Days After Application CHEAL
[4] = oilseed rape, canola (Brassica napus), read-out: Visual Growth Reduction (%) 14 Days After Application BRSNN
[5] = redroot pigweed (Amaranthus retroflexus), read-out: Visual Growth Reduction (%) 14 Days After Application AMARE
[6] = sunflower (Helianthus annuus), read-out: Visual Growth Reduction (%) 14 Days After Application HELAN
[7] = velvetleaf (Abutilon theophrasti), read-out: Visual Growth Reduction (%) 14 Days After Application ABUTH
[8] = wild poinsettia (Euphorbia heterophylla), read-out: Visual Growth Reduction (%) 14 Days After Application EPHHL
[9] = barnyardgrass (Echinochloa crus-galli), read-out: Visual Growth Reduction (%) 14 Days After Application ECHCG
[10] = maize, corn (Zea mays), read-out: Visual Growth Reduction (%) 14 Days After Application ZEAMX
[11] = rice (Oryza sativa), read-out: Visual Growth Reduction (%) 14 Days After Application ORYSA
[12] = wheat, spring (Triticum aestivum), read-out: Visual Growth Reduction (%) 14 Days After Application TRZAS
[13] = yellow nutsedge (Cyperus esculentus), read-out: Visual Growth Reduction (%) 14 Days After Application CYPES
[14] = giant foxtail (Setaria faberi), read-out: Visual Growth Reduction (%) 14 Days After Application SETFA

Molecule `COC(=O)c1nc(-c2ccc3c(c2)CCN3C)c(F)c(N)c1Cl` [Compound 107] has a pest or weed control at 140 g/ha ([1]; ABUTH: velvetleaf (Abutilon theophrasti), read-out: Visual Growth Reduction (%) 14 Days After Application ABUTH) of 60 to 74%, a pest or weed control at 140 g/ha ([1]; AMARE: redroot pigweed (Amaranthus retroflexus), read-out: Visual Growth Reduction (%) 14 Days After Application AMARE) of 0 to 29% and a pest or weed control at 140 g/ha ([1]; BRSNN: oilseed rape, canola (Brassica napus), read-out: Visual Growth Reduction (%) 14 Days After Application BRSNN) of 0 to 29%. It also gave a pest or weed control at 140 g/ha ([1]; CHEAL: lambsquarters (Chenopodium album), read-out: Visual Growth Reduction (%) 14 Days After Application CHEAL) of 85 to 94%, a pest or weed control at 140 g/ha ([1]; EPHHL: wild poinsettia (Euphorbia heterophylla), read-out: Visual Growth Reduction (%) 14 Days After Application EPHHL) of 95 to 100% and a pest or weed control at 140 g/ha ([1]; HELAN: sunflower (Helianthus annuus), read-out: Visual Growth Reduction (%) 14 Days After Application HELAN) of 0 to 29%. It also gave a pest or weed control at 140 g/ha ([2]; barnyardgrass (Echinochloa crus-galli), read-out: Visual Growth Reduction (%) 14 Days After Application, ECHCG) of 0 to 29%, a pest or weed control at 140 g/ha ([2]; giant foxtail (Setaria faberi), read-out: Visual Growth Reduction (%) 14 Days After Application, SETFA) of 0 to 29% and a pest or weed control at 140 g/ha ([2]; maize, corn (Zea mays), read-out: Visual Growth Reduction (%) 14 Days After Application, ZEAMX) of 0 to 29%. The pest or weed control at 140 g/ha ([2]; rice (Oryza sativa), read-out: Visual Growth Reduction (%) 14 Days After Application, ORYSA) was 0 to 29%, the pest or weed control at 140 g/ha ([2]; wheat, spring (Triticum aestivum), read-out: Visual Growth Reduction (%) 14 Days After Application, TRZAS) was 0 to 29% and the pest or weed control at 140 g/ha ([2]; yellow nutsedge (Cyperus esculentus), read-out: Visual Growth Reduction (%) 14 Days After Application, CYPES) was 0 to 29%.
With `COC(=O)c1nc(-c2cc3c(cc2F)OC(F)(F)O3)c(F)c(N)c1OC` [Compound 22, Methyl 4-amino-5-fluoro-3-methoxy-6-(2,2,6-trifluorobenzo[d][1,3]dioxol-5-yl)picolinate] the pest or weed control at 35 g/ha [1, 3] was 0 to 29%, the pest or weed control at 70 g/ha [1, 3] was 0 to 29% and the pest or weed control at 140 g/ha [1, 3] was 0 to 29%. The pest or weed control at 35 g/ha [1, 4] was 0 to 29%, the pest or weed control at 70 g/ha [1, 4] was 0 to 29% and the pest or weed control at 140 g/ha [1, 4] was 0 to 29%. It also gave a pest or weed control at 35 g/ha [1, 5] of 0 to 29%, a pest or weed control at 70 g/ha [1, 5] of 0 to 29% and a pest or weed control at 140 g/ha [1, 5] of 0 to 29%. The pest or weed control at 35 g/ha [1, 6] was 85 to 94%, the pest or weed control at 70 g/ha [1, 6] was 85 to 94% and the pest or weed control at 140 g/ha [1, 6] was 85 to 94%. It also gave a pest or weed control at 35 g/ha [1, 7] of 0 to 29%, a pest or weed control at 70 g/ha [1, 7] of 0 to 29% and a pest or weed control at 140 g/ha [1, 7] of 0 to 29%. It also gave a pest or weed control at 35 g/ha [1, 8] of 30 to 44%, a pest or weed control at 70 g/ha [1, 8] of 45 to 59% and a pest or weed control at 140 g/ha [1, 8] of 45 to 59%. The pest or weed control at 35 g/ha [2, 9] was 0 to 29%, the pest or weed control at 70 g/ha [2, 9] was 0 to 29% and the pest or weed control at 140 g/ha [2, 9] was 45 to 59%. For the same molecule, the pest or weed control at 35 g/ha [2, 10] was 0 to 29%, the pest or weed control at 70 g/ha [2, 10] was 60 to 74% and the pest or weed control at 140 g/ha [2, 10] was 75 to 84%. For the same molecule, the pest or weed control at 35 g/ha [2, 11] was 0 to 29%, the pest or weed control at 70 g/ha [2, 11] was 0 to 29% and the pest or weed control at 140 g/ha [2, 11] was 0 to 29%. It also gave a pest or weed control at 35 g/ha [2, 12] of 0 to 29%, a pest or weed control at 70 g/ha [2, 12] of 45 to 59% and a pest or weed control at 140 g/ha [2, 12] of 60 to 74%. It also gave a pest or weed control at 35 g/ha [2, 13] of 95 to 100%, a pest or weed control at 70 g/ha [2, 13] of 95 to 100% and a pest or weed control at 140 g/ha [2, 13] of 95 to 100%.
In the case of `Nc1nc(-c2ccc3c(c2)OC(F)(F)O3)nc(C(=O)O)c1Cl` [Compound 61], the pest or weed control at 35 g/ha [1, 3] was 60 to 74%, the pest or weed control at 70 g/ha [1, 3] was 60 to 74% and the pest or weed control at 140 g/ha [1, 3] was 75 to 84%. The pest or weed control at 35 g/ha [1, 4] was 60 to 74%, the pest or weed control at 70 g/ha [1, 4] was 85 to 94% and the pest or weed control at 140 g/ha [1, 4] was 75 to 84%. For the same molecule, the pest or weed control at 35 g/ha [1, 5] was 0 to 29%, the pest or weed control at 70 g/ha [1, 5] was 30 to 44% and the pest or weed control at 140 g/ha [1, 5] was 30 to 44%. For the same molecule, the pest or weed control at 35 g/ha [1, 6] was 60 to 74%, the pest or weed control at 70 g/ha [1, 6] was 60 to 74% and the pest or weed control at 140 g/ha [1, 6] was 75 to 84%. For the same molecule, the pest or weed control at 35 g/ha [1, 7] was 45 to 59%, the pest or weed control at 70 g/ha [1, 7] was 60 to 74% and the pest or weed control at 140 g/ha [1, 7] was 60 to 74%. For the same molecule, the pest or weed control at 35 g/ha [1, 8] was 85 to 94%, the pest or weed control at 70 g/ha [1, 8] was 95 to 100% and the pest or weed control at 140 g/ha [1, 8] was 95 to 100%. The pest or weed control at 35 g/ha [2, 9] was 85 to 94%, the pest or weed control at 70 g/ha [2, 9] was 85 to 94% and the pest or weed control at 140 g/ha [2, 9] was 85 to 94%. The pest or weed control at 35 g/ha [2, 14] was 60 to 74%, the pest or weed control at 70 g/ha [2, 14] was 75 to 84% and the pest or weed control at 140 g/ha [2, 14] was 85 to 94%. For the same molecule, the pest or weed control at 35 g/ha [2, 11] was 0 to 29%, the pest or weed control at 70 g/ha [2, 11] was 45 to 59% and the pest or weed control at 140 g/ha [2, 11] was 60 to 74%. For the same molecule, the pest or weed control at 35 g/ha [2, 12] was 60 to 74%, the pest or weed control at 70 g/ha [2, 12] was 75 to 84% and the pest or weed control at 140 g/ha [2, 12] was 75 to 84%. It also gave a pest or weed control at 35 g/ha [2, 13] of 0 to 29%, a pest or weed control at 70 g/ha [2, 13] of 0 to 29% and a pest or weed control at 140 g/ha [2, 13] of 45 to 59%.
